Consider six compounds from patent US4542027A, “Laidlomycin phenylcarbamate” (Syntex (U.S.A.) Inc., priority 1984, dated 1985).

Like-named read-outs stand apart in the source and are kept apart here.

Broadly, the amount remaining is what is left of the initial amount, in per cent.

Data set [1] can be described thus: Stability in soybean millrun feed premix at 60° C. It counts as physicochemical. The settings on record: soybean millrun feed premix; 60° C., one week, soybean millrun premix, 10% (w/w). The method, then:
These materials were then stored at 60° C. and analyzed for starting material at one week. The premix composition is given in Table 5 and the stability data in Table 6.

Data set [2] can be described thus: Stability at 60° C. in methanol-water, acetate buffer. The settings on record: methanol-water, acetate buffer. It counts as physicochemical. Here is the method: Laidlomycin phenylcarbamate, laidlomycin isopopylcarbamate and two laidlomycin esters were prepared and their relative stability at 60° C. methanol-water, acetate buffer was determined. A complete list of the esters and carbamates which were tested under these conditions follows: […]

Data set [3] deals with rumen fluid. The data set is described as follows: Propionic acid production (VFA) in in vitro rumen fluid fermentation. It counts as cell-based, steer. More on the design: Propionic acid production rate: unit not given here. The settings on record: 9 h. The method, then: (§1) Two separate fermentation models were used to evaluate effects of laidlomycin and laidlomycin phenylcarbamate upon volatile fatty acids (VFA) and lactic acid production. Test compounds were solubilized in absolute ethanol at concentrations of 1 mg/ml and were serially diluted twofold in absolute ethanol through six additional concentrations. Aliquots of 200 μl were transferred to 18×150 mm test tubes, which were used as incubation vessels, and the ethanol was evaporated.
(§2) For both fermentation models rumen fluid from a rumen-fistulated steer, consuming a 100% alfalfa hay diet, was obtained before the morning feeding. The fluid was strained through four layers of cheesecloth, mixed with an equal volume of CO2 -saturated buffer, and 10 ml was transferred to each of the incubation vessels. All tubes were fitted with gas-release stoppers under an atmosphere of CO2 and were incubated in a shaking waterbath at 39° C. […] This medium, designed to be microbiologically nonselective, encouraged VFA production with no accumulation of lactic acid. Buffer used to study lactic acid accumulation (table 1) contained 150 mmol of glucose/liter and had little buffering capacity. This medium favored growth of lactic acid-producing bacteria and allowed rapid production of lactic acid coupled with a precipitous drop in pH from pH 6.2 to less than pH 5 during the course of an incubation.
(§3) Fermentation was terminated at 9 h for the VFA fermentations and at 5.5 h for the lactic acid fermentations by addition of 2 ml of 25% metaphosphoric acid to the incubation tubes. Aliquots were frozen overnight, thawed, centrifuged at 30,000 × g for 10 min and the resulting supernatants analyzed for either L(+)-lactic acid or VFA. The L(+)-lactic acid was analyzed via a specific enzymatic assay in which the concentration of lactic acid in the fermentation broth was quantified by the increase in absorbance of light at 340 nm when nicotinamide adenine dinucleotide was reduced by lactic acid with the aid of L(+)-lactic dehydrogenase. VFA were analyzed via gas chromatography using a Varian chromatograph equipped with a flame ionization detector. Acids were separated on a glass column (0.64×182.9 cm) packed with 10% SP-1200/1% H3 PO4 on Chromosorb-WAW®, 80-100 mesh. This column was obtained pre-packed from Supelco, Inc., Bellefont, Pennsylvania. Chromatographic conditions included a column temperature of 145° C., an injector temperature of 190° C., a detector temperature of 190° C., a carrier gas flow of 45 ml/min and an injection volume of 1 μl.
(§4) Net production rates of all acids were calculated by subtracting the concentration of acids in the incubation fluid before incubation from the concentration determined in each tube after incubation. Molar proportions of acetic, propionic, and butyric acids produced were calculated by dividing the production rate of individual acids by the sum of the production rates of the three acids. Data were analyzed by analysis of variance (SAS, 1979). Comparisons (Duncan's multiple range test) of individual means were made when treatment effects (P<0.05) were indicated.

The test system of data set [4] is rumen fluid. The data set is described as follows: L(+)-Lactic acid production in in vitro rumen fluid fermentation. It is filed as cell-based, steer. More on the design: Lactic acid production rate: unit not given here. The conditions noted are these: 5.5 h. Here is the method: as §1, §2, §3, §4
A further data set concerns Gram positive bacteria. The settings on record: Journal of Antibiotics 1974, 1976; cited from earlier work.
For data set [5] the following is noted: U.S. Pat. No. 3,794,732; cited from earlier work.

In data set [1], `CCC(=O)OC(C(C)C(=O)O)C(C)C1OC2(CCC(C)(C3CCC(C)(C4OC(C5OC(O)(COC(=O)C(C)C)C(C)CC5C)CC4C)O3)O2)CC(O)C1C` (stereo not shown) [Laidlomycin isobutyrate, reference compound] showed a share remaining at 168 h of 70%.
In the case of `CCC(=O)OCC1(O)OC(C2CC(C)C(C3(C)CCC(C4(C)CCC5(CC(O)C(C)C(C(C)C(OC(=O)CC)C(C)C(=O)O)O5)O4)O3)O2)C(C)CC1C` (stereo not shown) [Laidlomycin propionate, reference compound], the half-life in data set [2] (60° C., read-out: t1/2 (converted)) is 11.1 h. The amount remaining at 168 h in data set [1] was 59%.
Consider `CCC(=O)OC(C(C)C(=O)O)C(C)C1OC2(CCC(C)(C3CCC(C)(C4OC(C5OC(O)(CO)C(C)CC5C)CC4C)O3)O2)CC(O)C1C` (stereo not shown) [Laidlomycin, laidlomycin], for which the “Propionic acid production rate” value amounted to 21.1 in the data set with rumen fluid [3] (0.31 μg/ml); 20.9 in the data set with rumen fluid [3] (1.25 μg/ml); 21.8 with rumen fluid [3] (2.50 μg/ml); 22.2 in the data set on rumen fluid [3] (5.00 μg/ml); 23.1 in the data set on rumen fluid [3] (10.00 μg/ml); 23.2 in the data set on rumen fluid [3] (20.00 μg/ml). The “Propionic acid production, percentage of control” value with rumen fluid [3] (10.00 μg/ml) is recorded as 108 % of control; with rumen fluid [3] (20.00 μg/ml) it was 109 % of control. Also, the activity at 0.31 µg/mL in the data set on rumen fluid [3] (0.31 μg/ml, read-out: Propionic acid production, percentage of control) is 99%; with rumen fluid [4] (0.31 μg/ml, read-out: Lactic acid production, percentage of control), 101%. For the same compound, the activity at 1.25 µg/mL in the data set on rumen fluid [3] (1.25 μg/ml, read-out: Propionic acid production, percentage of control) is 98%; in the data set on rumen fluid [4] (1.25 μg/ml, read-out: Lactic acid production, percentage of control) it was 94%. In addition, the activity at 2.5 µg/mL with rumen fluid [3] (2.50 μg/ml, read-out: Propionic acid production, percentage of control) worked out at 102%; with rumen fluid [4] (2.50 μg/ml, read-out: Lactic acid production, percentage of control), 115%. Also, the activity at 5 µg/mL is 104% in the data set with rumen fluid [3] (5.00 μg/ml, read-out: Propionic acid production, percentage of control) and 95% with rumen fluid [4] (5.00 μg/ml, read-out: Lactic acid production, percentage of control). Also, the activity at 10 µg/mL in the data set on rumen fluid [3] (10.00 μg/ml, read-out: Propionic acid production, percentage of control) stood at 108%; in the data set with rumen fluid [4] (10.00 μg/ml, read-out: Lactic acid production, percentage of control) it was 77%. Also, the activity at 20 µg/mL turned out to be 109% with rumen fluid [3] (20.00 μg/ml, read-out: Propionic acid production, percentage of control) and 81% in the data set on rumen fluid [4] (20.00 μg/ml, read-out: Lactic acid production, percentage of control). Further, the activity at 0.62 µg/mL with rumen fluid [3] (read-out: Propionic acid production, percentage of control, 0.62 μg/ml, 9 h) amounted to 98%; in the data set with rumen fluid [4] (0.62 μg/ml, read-out: Lactic acid production, percentage of control), 110%. In addition, the “Lactic acid production rate” value with rumen fluid [4] (0.31 μg/ml) is recorded as 28.3; in the data set on rumen fluid [4] (0.62 μg/ml), 30.7; in the data set with rumen fluid [4] (1.25 μg/ml) it was 26.4; in the data set with rumen fluid [4] (2.50 μg/ml), 32.0; in the data set with rumen fluid [4] (5.00 μg/ml), 26.5; in the data set with rumen fluid [4] (10.00 μg/ml), 21.6. The “Lactic acid production rate” value in the data set with rumen fluid [4] (20.00 μg/ml) was 22.7. In addition, the “Lactic acid production, percentage of control” value in the data set with rumen fluid [4] (20.00 μg/ml) is 81 % of control. For the same compound, the “Growth inhibition of Gram positive bacteria” value with Gram positive bacteria was “inhibits the growth of Gram positive bacteria”.
Consider `CC[C@@]1([C@@H]2O[C@@H]([C@H]3O[C@@](O)(CO)[C@H](C)C[C@@H]3C)C[C@@H]2C)CC[C@H]([C@]2(C)CC[C@]3(C[C@H](O)[C@@H](C)[C@@H]([C@@H](C)[C@@H](OC)[C@H](C)C(=O)O)O3)O2)O1` [Monensin], for which the “Increasing feed utilization in ruminants” value in data set [5] is “useful in increasing feed utilization in ruminants”.
Regarding `CCCC(=O)O` [butyrate], the half-life in data set [2] was 22.3 h.
For the compound “laidlomycin isopopylcarbamate [isopropylcarbamate]”, in data set [2] (60° C.), the t1/2 was found to be 501.8 h.
